Measured values: patent publication US11524966B1 (Valo Early Discovery, Inc., priority 2017, dated 2022)
pIC50: −log10 of the molar value.

target: T1, USP25 (USP25-His6, Boston Biochem E-546) (Homo sapiens, UniProt Q9UHP3); test: Ubiquitin-Rhodamine 110 Assay for USP25 Activity, Example A-2; assay type: biochemical; conditions: Ub-Rh110 assay, Example A-2; read-out: USP25 A-2 IC50 range
T1 construct: His6; purchased Boston Biochem E-546
T1 sequence (Q9UHP3 1-1055): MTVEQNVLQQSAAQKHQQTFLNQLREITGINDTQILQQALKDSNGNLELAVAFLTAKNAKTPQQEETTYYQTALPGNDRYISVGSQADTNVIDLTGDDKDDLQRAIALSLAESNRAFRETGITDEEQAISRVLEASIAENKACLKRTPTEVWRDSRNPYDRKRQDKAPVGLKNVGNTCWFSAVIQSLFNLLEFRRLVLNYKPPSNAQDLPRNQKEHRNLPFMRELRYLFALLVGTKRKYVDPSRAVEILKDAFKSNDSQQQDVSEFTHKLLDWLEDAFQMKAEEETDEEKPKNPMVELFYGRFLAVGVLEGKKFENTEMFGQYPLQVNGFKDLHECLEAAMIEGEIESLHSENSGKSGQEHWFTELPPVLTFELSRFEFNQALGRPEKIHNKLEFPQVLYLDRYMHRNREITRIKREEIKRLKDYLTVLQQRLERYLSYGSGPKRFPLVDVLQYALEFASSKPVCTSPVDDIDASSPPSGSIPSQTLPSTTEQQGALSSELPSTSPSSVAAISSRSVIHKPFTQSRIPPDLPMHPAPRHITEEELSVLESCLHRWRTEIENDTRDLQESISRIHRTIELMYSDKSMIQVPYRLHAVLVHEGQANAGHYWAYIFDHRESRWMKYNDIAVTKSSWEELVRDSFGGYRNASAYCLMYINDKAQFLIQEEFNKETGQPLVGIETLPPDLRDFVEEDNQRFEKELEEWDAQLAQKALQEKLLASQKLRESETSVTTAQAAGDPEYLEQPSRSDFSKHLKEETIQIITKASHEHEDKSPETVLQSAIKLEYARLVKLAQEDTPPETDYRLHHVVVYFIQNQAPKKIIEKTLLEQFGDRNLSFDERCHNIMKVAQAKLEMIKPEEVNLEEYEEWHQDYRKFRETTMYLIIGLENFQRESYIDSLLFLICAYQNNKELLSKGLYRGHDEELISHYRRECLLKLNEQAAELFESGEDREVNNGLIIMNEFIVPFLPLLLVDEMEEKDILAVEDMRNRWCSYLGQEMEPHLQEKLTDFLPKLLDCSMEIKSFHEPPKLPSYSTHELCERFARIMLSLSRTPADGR
How it was run: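 Inhibition is quantified as IC50 by 4-parameter fit of fluorescence (485/535 nm) from Ub-Rh110 hydrolysis. Enzyme USP25-His6 at 75 pM with 30 min compound preincubation, then 25 nM substrate for 45 min at room temperature in pH 8.0 Tris buffer containing BME.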

`Cc1cc(C)c2c(N)c(C(=O)N[C@H]3COc4cc(N5CC6CNCC(C5)O6)ccc4C3)sc2n1` [Example 2-20, N-((3R)-7-(9-oxa-3,7-diazabicyclo[3.3.1]nonan-3-yl)chroman-3-yl)-3-amino-4,6-dimethylthieno[2,3-b]pyridine-2-carboxamide] and `Cc1cc(C(F)(F)F)c2c(N)c(C(=O)N[C@H]3COc4cc(N5CC6CNCC(C5)O6)ccc4C3)sc2n1` [Example 2-23, N-((3R)-7-(9-oxa-3,7-diazabicyclo[3.3.1]nonan-3-yl)chroman-3-yl)-3-amino-6-methyl-4-(trifluoromethyl)thieno[2,3-b]pyridine-2-carboxamide] fall in the same range of pIC50: 7.30 to 9.00 for the first, 7.30 to 9.00 for the second.

First: Cc1cc(C(F)(F)F)c2c(N)c(C(=O)N[C@H]3COc4cc(N5CC6CC(C5)N6)ccc4C3)sc2n1 [Example 2-21]
Second: Cc1cc(C(F)(F)F)c2c(N)c(C(=O)N[C@H]3COc4cc(N5CC6CNCC(C5)C6(F)F)ccc4C3)sc2n1 [Example 2-22, 3-amino-N-((3R)-7-(9,9-difluoro-3,7-diazabicyclo[3.3.1]nonan-3-yl)chroman-3-yl)-6-methyl-4-(trifluoromethyl)thieno[2,3-b]pyridine-2-carboxamide]
The pIC50 of the first is lower: 6.70 to 7.30 for the first, 7.30 to 9.00 for the second. The second is the more potent here.

First: O=C(N[C@H]1COc2cc(N3CC4CCC(C3)N4)ccc2C1)c1cnc2c(c1)C1(CCN2)CC1 [Example 2-24, N-((3R)-7-(3,8-diazabicyclo[3.2.1]octan-3-yl)chroman-3-yl)-2′,3′-dihydro-1′H-spiro[cyclopropane-1,4′-[1,8]naphthyridine]-6′-carboxamide]
Second: O=C(N[C@H]1COc2cc(N3CC4CCC(C3)N4)ccc2C1)c1ccc(NCc2ccccc2)nc1 [Example 2-25, N-((3R)-7-(3,8-diazabicyclo[3.2.1]octan-3-yl)chroman-3-yl)-6-(benzylamino)nicotinamide]
The pIC50 of the first is lower: 5.70 to 6.70 for the first, 6.70 to 7.30 for the second. The second is the more potent here.

`Cc1nc2sc(C(=O)N[C@H]3COc4cc(N5CC6CC(C5)N6)ccc4C3)c(N)c2s1` [Example 2-26, N-((3R)-7-(3,6-diazabicyclo[3.1.1]heptan-3-yl)chroman-3-yl)-6-amino-2-methylthieno[2,3-d]thiazole-5-carboxamide] and `Cc1nc2sc(C(=O)N[C@H]3COc4cc(N5CC6CCCC(C5)N6)ccc4C3)c(N)c2s1` [Example 2-27] fall in the same range of pIC50: 5.70 to 6.70 for the first, 5.70 to 6.70 for the second.

First: Cc1nc2sc(C(=O)N[C@H]3COc4cc(N5CC6CNCC(C5)C6(F)F)ccc4C3)c(N)c2s1 [Example 2-28, 6-amino-N-((3R)-7-(9,9-difluoro-3,7-diazabicyclo[3.3.1]nonan-3-yl)chroman-3-yl)-2-methylthieno[2,3-d]thiazole-5-carboxamide]
Second: Cc1ccc2c(N)c(C(=O)N[C@H]3COc4cc(N5CC6CNCC(C5)C6(F)F)c(C#N)cc4C3)sc2n1 [Example 2-33, 3-amino-N-((3R)-6-cyano-7-(9,9-difluoro-3,7-diazabicyclo[3.3.1]nonan-3-yl)chroman-3-yl)-6-methylthieno[2,3-b]pyridine-2-carboxamide]
The pIC50 of the first is lower: 6.70 to 7.30 for the first, 7.30 to 9.00 for the second. The second is the more potent here.

First: CCn1ccc2cc(C(=O)N[C@H]3COc4cc(N5CC6CCCC(C5)N6)ccc4C3)nnc21 [Example 2-29, N-((3R)-7-(3,9-diazabicyclo[3.3.1]nonan-3-yl)chroman-3-yl)-7-ethyl-7H-pyrrolo[2,3-c]pyridazine-3-carboxamide]
Second: CCn1ccc2cc(C(=O)N[C@H]3COc4cc(N5CC6CNCC(C5)C6(F)F)ccc4C3)cnc21 [Example 2-30, N-((3R)-7-(9,9-difluoro-3,7-diazabicyclo[3.3.1]nonan-3-yl)chroman-3-yl)-1-ethyl-1H-pyrrolo[2,3-b]pyridine-5-carboxamide]
The pIC50 of the first is lower: 5.70 to 6.70 for the first, 7.30 to 9.00 for the second. The second is the more potent here.

First: Cc1cc(C)c2c(N)c(C(=O)N[C@H]3COc4c(C#N)c(N5CCNCC5)cc(F)c4C3)sc2n1 [Example 2-31, (R)-3-amino-N-(8-cyano-5-fluoro-7-(piperazin-1-yl)chroman-3-yl)-4,6-dimethylthieno[2,3-b]pyridine-2-carboxamide]
Second: Cc1cc(C)c2c(N)c(C(=O)N[C@H]3COc4cc(N5CCNCC5)c(C#N)c(F)c4C3)sc2n1 [Example 2-32, (R)-3-amino-N-(6-cyano-5-fluoro-7-(piperazin-1-yl)chroman-3-yl)-4,6-dimethylthieno[2,3-b]pyridine-2-carboxamide]
The pIC50 of the first is lower: 5.70 to 6.70 for the first, 7.30 to 9.00 for the second. The second is the more potent here.

In the case of `[2H]C([2H])([2H])O[C@H]1CN(c2ccc3c(c2)OC[C@H](NC(=O)c2sc4nc(C)ccc4c2N)C3)C[C@@H]1N` [Example 2-38, 3-amino-N-((R)-7-((3S,4S)-3-amino-4-(methoxy-d3)pyrrolidin-1-yl)chroman-3-yl)-6-methylthieno[2,3-b]pyridine-2-carboxamide], the pIC50 was 5.70 to 6.70.

same assay, conditions: Ubiquitin-Rhodamine 110 assay, Example A-2; read-out: USP25 A-2 IC50 range

With `Cc1cnc2c(N)c(C(=O)N[C@H]3CCc4nc(N5CCNCC5)ccc4C3)sc2n1` [Example 23-6, 7-amino-3-methyl-N-[(6S)-2-(piperazin-1-yl)-5,6,7,8-tetrahydroquinolin-6-yl]thieno[2,3-b]pyrazine-6-carboxamide] the pIC50 was 5.70 to 6.70.
